# Test results from PubChem BioAssay AID330 (DTP/NCI, 2004).
# Where “and” joins values, the source holds several entries; their conditions need not be identical. Equal entries are not always repeated. Toxic doses and inconclusive results are not listed.
# Test system: P388 leukemia ip, CD2F1 mice, survival T/C
# Assay: NCI In Vivo Anticancer Drug Screen. Data for tumor model P388 Leukemia (intraperitoneal) in CD2F1 (CDF1) mice
# Conditions: endpoint: median survival time, higher = longer survival
# Outline: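 Mice carrying the transplanted tumor received test compound or vehicle. Survival was recorded in each group, and the value is the treated-group measurement divided by that of the vehicle-treated control group.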
# [1] = dose: 100.0 mg/kg/injection, schedule: Q01DX001 (ip), vehicle: saline with Tween-80
# [2] = dose: 60.0 mg/kg/injection, schedule: Q01DX005 (ip), vehicle: saline with Tween-80
# [3] = dose: 120.0 mg/kg/injection, schedule: Q01DX005 (ip), vehicle: saline with Tween-80
# [4] = dose: 240.0 mg/kg/injection, schedule: Q01DX005 (ip), vehicle: saline with Tween-80
# [5] = dose: 12.5 mg/kg/injection, schedule: Q01DX005 (ip), vehicle: saline
# [6] = dose: 25.0 mg/kg/injection, schedule: Q01DX005 (ip), vehicle: saline
# [7] = dose: 50.0 mg/kg/injection, schedule: Q01DX005 (ip), vehicle: saline
# [8] = dose: 100.0 mg/kg/injection, schedule: Q01DX005 (ip), vehicle: saline
# [9] = dose: 50.0 mg/kg/injection, schedule: Q01DX005 (ip), vehicle: saline with Tween-80
# [10] = dose: 100.0 mg/kg/injection, schedule: Q01DX005 (ip), vehicle: saline with Tween-80
# [11] = dose: 50.0 mg/kg/injection, schedule: Q01DX009 (ip), vehicle: saline with Tween-80
# [12] = dose: 100.0 mg/kg/injection, schedule: Q01DX009 (ip), vehicle: saline with Tween-80
# [13] = dose: 200.0 mg/kg/injection, schedule: Q01DX009 (ip), vehicle: saline with Tween-80
# [14] = dose: 50.0 mg/kg/injection, schedule: Q01DX009 (ip), vehicle: Klucel (hydroxypropylcellulose) (HPC)
# [15] = dose: 100.0 mg/kg/injection, schedule: Q01DX009 (ip), vehicle: Klucel (hydroxypropylcellulose) (HPC)
# [16] = dose: 200.0 mg/kg/injection, schedule: Q01DX009 (ip), vehicle: Klucel (hydroxypropylcellulose) (HPC)
# [17] = dose: 50.0 mg/kg/injection, schedule: Q01DX009 (ip), vehicle: saline
# [18] = dose: 100.0 mg/kg/injection, schedule: Q01DX009 (ip), vehicle: saline
structure (smiles),measurement,setting,value
O=NN(CCCl)C(=O)Oc1ccc(Cl)cc1Cl,T/C,"dose: 3.12 mg/kg/injection, schedule: Q01DX001 (ip), vehicle: saline with Tween-80",106 % of control
same,T/C,"dose: 6.25 mg/kg/injection, schedule: Q01DX001 (ip), vehicle: saline with Tween-80",118 % of control
same,T/C,"dose: 25.0 mg/kg/injection, schedule: Q01DX001 (ip), vehicle: saline with Tween-80",123 % of control
same,T/C,"dose: 50.0 mg/kg/injection, schedule: Q01DX001 (ip), vehicle: saline with Tween-80",109 % of control
same,T/C,[1],122 % of control
same,T/C,"dose: 150.0 mg/kg/injection, schedule: Q01DX001 (ip), vehicle: saline with Tween-80",118 % of control
COC(=O)CCCCCCCCCCN(CCCl)CCCl,T/C,"dose: 6.25 mg/kg/injection, schedule: Q01DX009 (ip), vehicle: saline",160 % of control and 169 % of control
same,T/C,"dose: 12.5 mg/kg/injection, schedule: Q01DX009 (ip), vehicle: saline",89 % of control
Cc1cc(Nc2ccc(O)cc2)nc(Nc2ccc(O)cc2)n1,T/C,[2],99 % of control
same,T/C,[3],99 % of control
same,T/C,[4],103 % of control
O=N[O-].O=N[O-].[I][Pt][I],T/C,[5],116 % of control and 117 % of control
same,T/C,[6],124 % of control
same,T/C,[7],105 % of control
same,T/C,[8],124 % of control
CN(C)c1ccc(C(=O)C2(Cl)CCCC(C)(C)C2)cc1 (stereo not drawn),T/C,"dose: 100.0 mg/kg/injection, schedule: Q04DX002 (ip), vehicle: Klucel (hydroxypropylcellulose) (HPC)",102 % of control
same,T/C,"dose: 200.0 mg/kg/injection, schedule: Q04DX002 (ip), vehicle: Klucel (hydroxypropylcellulose) (HPC)",99 % of control
same,T/C,"dose: 400.0 mg/kg/injection, schedule: Q04DX002 (ip), vehicle: Klucel (hydroxypropylcellulose) (HPC)",94 % of control
Cc1ccccc1N=Nc1ccc(N=Nc2ccc(N)nc2N)c(C)c1,T/C,[9],104 % of control
same,T/C,[10],110 % of control
same,T/C,"dose: 200.0 mg/kg/injection, schedule: Q01DX005 (ip), vehicle: saline with Tween-80",99 % of control
CCCCCN1C(=O)C2C3CCC(O3)C2C1=O (stereo not drawn),T/C,"dose: 50.0 mg/kg/injection, schedule: Q01DX005 (ip), vehicle: Klucel (hydroxypropylcellulose) (HPC)",109 % of control
same,T/C,"dose: 100.0 mg/kg/injection, schedule: Q01DX005 (ip), vehicle: Klucel (hydroxypropylcellulose) (HPC)",109 % of control
Nc1ccc(N=Nc2ccncc2)c2ccccc12,T/C,[9],100 % of control
same,T/C,[10],100 % of control
CC(=O)NS(=O)(=O)c1ccc(NC(=O)c2ccco2)cc1,T/C,"dose: 50.0 mg/kg/injection, schedule: Q01DX009 (ip), vehicle: saline + alcohol",98 % of control
same,T/C,"dose: 100.0 mg/kg/injection, schedule: Q01DX009 (ip), vehicle: saline + alcohol",104 % of control
same,T/C,"dose: 200.0 mg/kg/injection, schedule: Q01DX009 (ip), vehicle: saline + alcohol",91 % of control
NC(N)=NCCCSC(=O)C1CCCCC1,T/C,[9],105 % of control
same,T/C,[10],107 % of control
CC(=O)OCc1ncccc1OC(C)=O,T/C,"dose: 25.0 mg/kg/injection, schedule: Q01DX009 (ip), vehicle: saline with Tween-80",104 % of control
same,T/C,[11],111 % of control
same,T/C,[12],104 % of control
same,T/C,[13],109 % of control
C[Si](C)(C)CNC(=O)OCc1ccccc1,T/C,"dose: 60.0 mg/kg/injection, schedule: Q01DX005 (ip), vehicle: saline",97 % of control
same,T/C,"dose: 120.0 mg/kg/injection, schedule: Q01DX005 (ip), vehicle: saline",95 % of control
same,T/C,"dose: 240.0 mg/kg/injection, schedule: Q01DX005 (ip), vehicle: saline",95 % of control
CCCC1C=C(c2ccccc2)N=C(c2ccccc2)S1 (stereo not drawn),T/C,[11],98 % of control
same,T/C,[12],101 % of control
same,T/C,[13],90 % of control
O=c1ssc(=Nc2ccccc2)n1-c1ccccc1,T/C,[14],109 % of control
same,T/C,[15],116 % of control and 118 % of control
same,T/C,[16],113 % of control and 117 % of control
same,T/C,"dose: 400.0 mg/kg/injection, schedule: Q01DX009 (ip), vehicle: Klucel (hydroxypropylcellulose) (HPC)",124 % of control
NC(CC(=O)O)C(=O)OCc1ccccc1 (stereo not drawn),T/C,"dose: 25.0 mg/kg/injection, schedule: Q01DX009 (ip), vehicle: saline",97 % of control
same,T/C,[17],100 % of control
same,T/C,[18],100 % of control
same,T/C,"dose: 200.0 mg/kg/injection, schedule: Q01DX009 (ip), vehicle: saline",98 % of control
Clc1ccc([Si]23OCCN(CCO2)CCO3)cc1,T/C,"dose: 0.19 mg/kg/injection, schedule: Q01DX009 (ip), vehicle: Klucel (hydroxypropylcellulose) (HPC)",93 % of control
same,T/C,"dose: 0.39 mg/kg/injection, schedule: Q01DX009 (ip), vehicle: Klucel (hydroxypropylcellulose) (HPC)",99 % of control
same,T/C,"dose: 0.78 mg/kg/injection, schedule: Q01DX009 (ip), vehicle: Klucel (hydroxypropylcellulose) (HPC)",108 % of control
Cc1ccc(S(=O)(=O)N(CCc2ccc(Cl)cc2)S(=O)(=O)c2ccc(C)cc2)cc1,T/C,[14],109 % of control
same,T/C,[15],94 % of control
same,T/C,[16],93 % of control
O=NN(C(=O)NC1CCCC1)C1CCCC1,T/C,"dose: 25.0 mg/kg/injection, schedule: Q01DX001 (ip), vehicle: distilled water + Tween-80",106 % of control
same,T/C,"dose: 50.0 mg/kg/injection, schedule: Q01DX001 (ip), vehicle: distilled water + Tween-80",105 % of control
same,T/C,"dose: 100.0 mg/kg/injection, schedule: Q01DX001 (ip), vehicle: distilled water + Tween-80",108 % of control
same,T/C,"dose: 200.0 mg/kg/injection, schedule: Q01DX001 (ip), vehicle: distilled water + Tween-80",110 % of control
same,T/C,"dose: 400.0 mg/kg/injection, schedule: Q01DX001 (ip), vehicle: distilled water + Tween-80",110 % of control
CN1c2ccccc2SC2C(c3ccccc3)=NOC21 (stereo not drawn),T/C,"dose: 3.75 mg/kg/injection, schedule: Q01DX005 (ip), vehicle: saline with Tween-80",98 % of control
same,T/C,"dose: 7.5 mg/kg/injection, schedule: Q01DX005 (ip), vehicle: saline with Tween-80",93 % of control
same,T/C,"dose: 15.0 mg/kg/injection, schedule: Q01DX005 (ip), vehicle: saline with Tween-80",90 % of control
same,T/C,"dose: 30.0 mg/kg/injection, schedule: Q01DX005 (ip), vehicle: saline with Tween-80",88 % of control
same,T/C,[2],86 % of control
same,T/C,[4],89 % of control
CC(=O)[O][Hg][O]C(C)=O,T/C,"dose: 1.25 mg/kg/injection, schedule: Q01DX009 (ip), vehicle: saline with Tween-80",95 % of control
O=c1cc[nH]c(=S)[nH]1.[Cu+2],T/C,"dose: 1.56 mg/kg/injection, schedule: Q01DX009 (ip), vehicle: DMSO",100 % of control
same,T/C,"dose: 3.12 mg/kg/injection, schedule: Q01DX009 (ip), vehicle: DMSO",99 % of control
same,T/C,"dose: 6.25 mg/kg/injection, schedule: Q01DX009 (ip), vehicle: DMSO",86 % of control
same,T/C,"dose: 12.5 mg/kg/injection, schedule: Q01DX009 (ip), vehicle: DMSO",100 % of control
C1CCC(NC2CCCCC2)CC1,T/C,[5],103 % of control
same,T/C,"dose: 23.7 mg/kg/injection, schedule: Q01DX005 (ip), vehicle: saline",100 % of control
same,T/C,[6],102 % of control
same,T/C,"dose: 35.6 mg/kg/injection, schedule: Q01DX005 (ip), vehicle: saline",100 % of control
same,T/C,[7],100 % of control
same,T/C,"dose: 53.3 mg/kg/injection, schedule: Q01DX005 (ip), vehicle: saline",100 % of control
same,T/C,"dose: 80.0 mg/kg/injection, schedule: Q01DX005 (ip), vehicle: saline",100 % of control
same,T/C,[8],93 % of control
same,T/C,"dose: 200.0 mg/kg/injection, schedule: Q01DX005 (ip), vehicle: saline",102 % of control
CC(SCc1ccccc1)C(NC(=O)CCl)C(=O)O (stereo not drawn),T/C,[1],100 % of control
same,T/C,"dose: 200.0 mg/kg/injection, schedule: Q01DX001 (ip), vehicle: saline with Tween-80",97 % of control
same,T/C,"dose: 400.0 mg/kg/injection, schedule: Q01DX001 (ip), vehicle: saline with Tween-80",91 % of control
COc1cccc(OC)c1OCCN,T/C,[17],111 % of control
same,T/C,[18],99 % of control
O=c1[nH]c2c(c(=O)n1CC(O)CO)CCCC2 (stereo not drawn),T/C,[2],104 % of control
same,T/C,[3],100 % of control
same,T/C,[4],100 % of control
CCCc1[nH]nc(-c2n[nH]c(CCC)c2CC)c1CC,T/C,[2],101 % of control
same,T/C,[3],93 % of control
same,T/C,[4],110 % of control
CC(C)CC(Nc1nncs1)Nc1nncs1,T/C,[2],96 % of control
same,T/C,[3],90 % of control
same,T/C,[4],100 % of control
